Measurements reported in ChEMBL document CHEMBL1275577, “Study of the in vitro activities of rifaximin and comparator agents against 536 anaerobic intestinal bacteria from the perspective of potential utility in pathology involving bowel flora” (Antimicrob Agents Chemother, 2009).

What was measured:
Type in all cases: functional
[1] = test system: Lacticaseibacillus rhamnosus; test: Antimicrobial activity against Lactobacillus rhamnosus by Wadsworth agar dilution method in presence of beta-lactamase inhibitor Sulbactam
Clostridium disporicum = test: Antimicrobial activity against Clostridium disporicum by Wadsworth agar dilution method in presence of beta-lactamase inhibitor Sulbactam
[2] = test system: Peptostreptococcus anaerobius; test: Antimicrobial activity against Peptostreptococcus anaerobius by Wadsworth agar dilution method in presence of beta-lactamase inhibitor Sulbactam
Finegoldia magna = test: Antimicrobial activity against Finegoldia magna by Wadsworth agar dilution method in presence of beta-lactamase inhibitor Sulbactam
[3] = test system: Peptoniphilus asaccharolyticus; test: Antimicrobial activity against Peptoniphilus asaccharolyticus by Wadsworth agar dilution method in presence of beta-lactamase inhibitor Sulbactam
Atopobium minutum = test: Antimicrobial activity against Atopobium minutum by Wadsworth agar dilution method in presence of beta-lactamase inhibitor Sulbactam
[4] = test system: Limosilactobacillus reuteri; test: Antimicrobial activity against Lactobacillus reuteri by Wadsworth agar dilution method in presence of beta-lactamase inhibitor Sulbactam
[5] = test system: Limosilactobacillus fermentum; test: Antimicrobial activity against Lactobacillus fermentum by Wadsworth agar dilution method in presence of beta-lactamase inhibitor Sulbactam
Fusobacterium nucleatum = test: Antimicrobial activity against Fusobacterium nucleatum by Wadsworth agar dilution method in presence of beta-lactamase inhibitor Sulbactam
Clostridium tertium = test: Antimicrobial activity against Clostridium tertium by Wadsworth agar dilution method in presence of beta-lactamase inhibitor Sulbactam
Eubacterium callanderi = test: Antimicrobial activity against Eubacterium callanderi by Wadsworth agar dilution method in presence of beta-lactamase inhibitor Sulbactam
Bacteroides fragilis = test: Antimicrobial activity against Bacteroides fragilis by Wadsworth agar dilution method in presence of beta-lactamase inhibitor Sulbactam
Clostridium symbiosum = test: Antimicrobial activity against Clostridium symbiosum by Wadsworth agar dilution method in presence of beta-lactamase inhibitor Sulbactam
Bacteroides nordii = test: Antimicrobial activity against Bacteroides nordii by Wadsworth agar dilution method in presence of beta-lactamase inhibitor Sulbactam
[6] = test system: Desulfovibrio fairfieldensis; test: Antimicrobial activity against Desulfovibrio fairfieldensis by Wadsworth agar dilution method in presence of beta-lactamase inhibitor Sulbactam
[7] = test system: Pseudoramibacter alactolyticus; test: Antimicrobial activity against Eubacterium alactolyticum by Wadsworth agar dilution method in presence of beta-lactamase inhibitor Sulbactam
Eubacterium biforme = test: Antimicrobial activity against Eubacterium biforme by Wadsworth agar dilution method in presence of beta-lactamase inhibitor Sulbactam; conditions: Holdemanella biformis
Porphyromonas somerae = test: Antimicrobial activity against Porphyromonas somerae by Wadsworth agar dilution method in presence of beta-lactamase inhibitor Sulbactam
Ruminococcus gnavus = test: Antimicrobial activity against Ruminococcus gnavus by Wadsworth agar dilution method in presence of beta-lactamase inhibitor Sulbactam; conditions: Mediterraneibacter gnavus
Clostridium subterminale = test: Antimicrobial activity against Clostridium subterminale by Wadsworth agar dilution method in presence of beta-lactamase inhibitor Sulbactam
Schaalia meyeri = test: Antimicrobial activity against Actinomyces meyeri by Wadsworth agar dilution method in presence of beta-lactamase inhibitor Sulbactam
Eubacterium rectale = test: Antimicrobial activity against Eubacterium rectale by Wadsworth agar dilution method in presence of beta-lactamase inhibitor Sulbactam; conditions: Agathobacter rectalis
[8] = test system: Fusobacterium necrophorum; test: Antimicrobial activity against Fusobacterium necrophorum by Wadsworth agar dilution method in presence of beta-lactamase inhibitor Sulbactam
[9] = test system: Lactobacillus catenaformis; test: Antimicrobial activity against Lactobacillus catenaformis by Wadsworth agar dilution method in presence of beta-lactamase inhibitor Sulbactam; conditions: Eggerthia catenaformis
Bacteroides uniformis = test: Antimicrobial activity against Bacteroides uniformis by Wadsworth agar dilution method in presence of beta-lactamase inhibitor Sulbactam
Clostridium cocleatum = test: Antimicrobial activity against Clostridium cocleatum by Wadsworth agar dilution method in presence of beta-lactamase inhibitor Sulbactam; conditions: Thomasclavelia cocleata
[10] = test system: Clostridium paraputrificum; test: Antimicrobial activity against Clostridium paraputrificum by Wadsworth agar dilution method in presence of beta-lactamase inhibitor Sulbactam

`CC1(C)S[C@@H]2[C@H](NC(=O)[C@H](N)c3ccccc3)C(=O)N2[C@H]1C(=O)O` [AMPICILLIN] gave an MIC [1] of 0.25 µg/mL, an MIC50 [1] of 0.25 µg/mL and an MIC90 [1] of 2 µg/mL. For the same compound, the MIC (Clostridium disporicum) was 0.25 µg/mL, the MIC50 (Clostridium disporicum) was 0.25 µg/mL and the MIC90 (Clostridium disporicum) was 1 µg/mL. The MIC [2] was 0.25 µg/mL, the MIC50 [2] was 0.25 µg/mL and the MIC90 [2] was 2 µg/mL. The MIC (Finegoldia magna) was 0.25 µg/mL, the MIC50 (Finegoldia magna) was 0.25 µg/mL and the MIC90 (Finegoldia magna) was 2 µg/mL. It also gave an MIC [3] of 0.25 µg/mL, an MIC50 [3] of 0.25 µg/mL and an MIC90 [3] of 2 µg/mL. It also gave an MIC (Atopobium minutum) of 0.25 µg/mL, an MIC50 (Atopobium minutum) of 0.25 µg/mL and an MIC90 (Atopobium minutum) of 2 µg/mL. It also gave an MIC [4] of 0.25 µg/mL, an MIC50 [4] of 0.25 µg/mL and an MIC90 [4] of 2 µg/mL. For the same compound, the MIC [5] was 0.25 µg/mL, the MIC50 [5] was 0.25 µg/mL and the MIC90 [5] was 2 µg/mL. The MIC50 (Fusobacterium nucleatum) was 0.25 µg/mL, the MIC90 (Fusobacterium nucleatum) was 0.25 µg/mL and the MIC (Clostridium tertium) was 0.25 µg/mL. For the same compound, the MIC50 (Clostridium tertium) was 0.25 µg/mL, the MIC90 (Clostridium tertium) was 1 µg/mL and the MIC (Eubacterium callanderi) was 0.25 µg/mL. The MIC50 (Eubacterium callanderi) was 0.25 µg/mL, the MIC90 (Eubacterium callanderi) was 2 µg/mL and the MIC50 (Bacteroides fragilis) was 1 µg/mL. It also gave an MIC90 (Bacteroides fragilis) of 16 µg/mL, an MIC (Clostridium symbiosum) of 0.25 µg/mL and an MIC50 (Clostridium symbiosum) of 0.25 µg/mL. It also gave an MIC90 (Clostridium symbiosum) of 1 µg/mL, an MIC50 (Bacteroides nordii) of 2 µg/mL and an MIC90 (Bacteroides nordii) of 16 µg/mL. For the same compound, the MIC50 [6] was 4 µg/mL, the MIC90 [6] was 32 µg/mL and the MIC [7] was 0.25 µg/mL. For the same compound, the MIC50 [7] was 0.25 µg/mL, the MIC90 [7] was 2 µg/mL and the MIC (Eubacterium biforme) was 0.25 µg/mL. For the same compound, the MIC50 (Eubacterium biforme) was 0.25 µg/mL, the MIC90 (Eubacterium biforme) was 2 µg/mL and the MIC (Porphyromonas somerae) was 0.25 µg/mL. For the same compound, the MIC50 (Porphyromonas somerae) was 0.25 µg/mL, the MIC90 (Porphyromonas somerae) was 0.5 µg/mL and the MIC (Ruminococcus gnavus) was 0.25 µg/mL. The MIC50 (Ruminococcus gnavus) was 0.25 µg/mL, the MIC90 (Ruminococcus gnavus) was 2 µg/mL and the MIC (Clostridium subterminale) was 0.25 µg/mL. The MIC50 (Clostridium subterminale) was 0.25 µg/mL, the MIC90 (Clostridium subterminale) was 1 µg/mL and the MIC (Schaalia meyeri) was 0.25 µg/mL. For the same compound, the MIC50 (Schaalia meyeri) was 0.25 µg/mL, the MIC90 (Schaalia meyeri) was 2 µg/mL and the MIC (Eubacterium rectale) was 0.25 µg/mL. The MIC50 (Eubacterium rectale) was 0.25 µg/mL, the MIC90 (Eubacterium rectale) was 2 µg/mL and the MIC50 [8] was 1 µg/mL. For the same compound, the MIC90 [8] was 4 µg/mL, the MIC [9] was 0.25 µg/mL and the MIC50 [9] was 0.25 µg/mL. It also gave an MIC90 [9] of 2 µg/mL, an MIC50 (Bacteroides uniformis) of 2 µg/mL and an MIC90 (Bacteroides uniformis) of 16 µg/mL. For the same compound, the MIC (Clostridium cocleatum) was 0.25 µg/mL, the MIC50 (Clostridium cocleatum) was 0.25 µg/mL and the MIC90 (Clostridium cocleatum) was 1 µg/mL. For the same compound, the MIC [10] was 0.25 µg/mL, the MIC50 [10] was 0.25 µg/mL and the MIC90 [10] was 1 µg/mL.
